Assays:
Male Wistar rats [1] = assay: Montoya staircase test; type: in vivo, rat; settings: mean±SEM
Method: (§1) Male Wistar rats (250 to 300 grams; Charles River, Montreal, Quebec) were divided into 4 groups: intracerebroventricular injections of Aβ(25-35) (BACHEM, Torrance, Calif.); endothelin injections into the right striatum; both Aβ(25-35) and striatal endothelin injections; and sham procedures. The Aβ(25-35) fragment was used to reduce the possibility of rapid coagulation and to allow diffusion of the peptide into the brain.
(§2) All rats were anesthetized using 40 mg/kg of pentobarbital (Somnotol; MTC Pharmaceuticals, Cambridge, Ontario) intraperitoneally. Body temperature was maintained at 37° C. Aβ(25-35) (50 nmol in 10 μL of saline) was injected bilaterally into the lateral ventricles. Aβ(25-35) was prepared according to established methods (Sigurdsson, et al. (1997) supra). Aβ(25-35) (50 nmol in 10 μL of saline at a rate of 1 μL/minute) was injected bilaterally into the lateral ventricles via a stainless-steel cannula (23-gauge; anterior/posterior −0.8, medial/lateral ±1.4, and dorsal/ventral −4.0 below dura). Two endothelin injections (6 pmol in 3 μL of saline), 1 mm apart, were made into the right striatum (Sigurdsson, et al. (1997) supra). Sham procedures involved all the surgical steps without injections of Aβ(25-35) or endothelin. After wound suture, all rats received […] of buprenorphine intramuscularly and were allowed to recover from surgery for 7 days.
For training (n=10 for each group), rats were placed into the Montoya staircase apparatus (Montoya, et al. (1991) supra) at the same time every day for 8 days (days −8 through −1) and were allowed to perform the test for 20 minutes. Rats were food-deprived for 1 day (day −9) before testing, as well as on day −8. On days −7 though −1, rats were fed 10 grams of their normal chow so that they maintained their body weight at ˜85%. Three NOYES LAB ANIMAL PRECISION FOOD PELLETS™ (Research Diets, Inc., New Brunswick, N.J.) were placed in each of the 14 wells (7 on each side). Pellets eaten were recorded from each well. Re-testing trials, which were performed 7 days after the surgical procedures (day 0), were performed for 8 days in the same way as the training trials (days 8 through 15).
Digital photographs were taken using a light microscope (Leitz Diaplan). An investigator was blinded to the identification of the rat sections while analysis was being performed. […] Also, relative optical density measurements and numbers of stained cells or accumulations were measured in entire brain areas for quantitative analysis and statistically analyzed with ANOVA and Tukey post hoc test with a significance level of P<0.05. […] The staircase data are expressed as the mean±SEM. […] Data are expressed as mean±SEM. […]

Male Wistar rats [2] = assay: Congo Red histochemistry of rat brain sections; type: in vivo; settings: Aβ: lesions in fornix, anterior hippocampus, CA1 hippocampus; endothelin: infarct
Method: as §1
as §2, with “days. […]” for “days.”

Male Wistar rats [3] = assay: Immunohistochemistry of rat brain sections, grading scale of staining size and intensity; type: in vivo; design: key to NKκB(p65) immunostaining signal / COX-2 immunostaining signal / GFAP immunostaining signal / OX-6 immunostaining signal / APP immunostaining signal / Tau-2 immunostaining signal / TNFα immunostaining signal / Cas-3 immunostaining signal: n.s.: no positive staining; +: moderate immunostaining signal; ++: strong immunostaining signal; +++: strongest immunostaining signal
Method: (§3) All rats were anesthetized using 40 mg/kg of pentobarbital (Somnotol; MTC Pharmaceuticals, Cambridge, Ontario) intraperitoneally. Body temperature was maintained at 37° C. Aβ(25-35) (50 nmol in 10 μL of saline) was injected bilaterally into the lateral ventricles. Aβ(25-35) was prepared according to established methods (Sigurdsson, et al. (1997) supra). Aβ(25-35) (50 nmol in 10 μL of saline at a rate of 1 μL/minute) was injected bilaterally into the lateral ventricles via a stainless-steel cannula (23-gauge; anterior/posterior −0.8, medial/lateral ±1.4, and dorsal/ventral −4.0 below dura). Two endothelin injections (6 pmol in 3 μL of saline), 1 mm apart, were made into the right striatum (Sigurdsson, et al. (1997) supra). Sham procedures involved all the surgical steps without injections of Aβ(25-35) or endothelin. After wound suture, all rats received 40 mg/kg of buprenorphine intramuscularly and were allowed to recover from surgery for 7 days.
(§4) Twenty-one days after surgery, all animals were euthanized via pentobarbital overdose and perfused transaortically first with saline followed by 4% formaldehyde (pH 7.4). The brains were removed and cryoprotected in 30% sucrose for 36 hours at 4° C. Coronal sections (30 pm) were cut using a cryostat.
(§5) Free-floating sections from rat brains (n=5 for each group) were treated with 0.03% hydrogen peroxide and blocked with 3 mL of horse or rabbit serum (VECTASTAIN® Elite, Vector Laboratories, Burlingame, Calif.). The following primary antibodies were diluted in filtered phosphate-buffered saline: APPa4 mouse monoclonal (Chemicon International Inc, Temecula, Calif.; 1:1000), GFAP mouse monoclonal (Sigma-Aldrich, St Louis, Mo.; 1:1000), OX-6 mouse monoclonal (Serotec, Inc., Raleigh, N.C.; 1:1000), Tau-2 mouse monoclonal (Sigma-Aldrich, St Louis, Mo.; 1:10000), NFκB(p65) goat polyclonal (Santa Cruz Biotechnologies, Santa Cruz, Calif.; 1:1000), IL-1β goat polyclonal (Santa Cruz Biotechnologies, Santa Cruz, Calif.; 1:1000), and TNF-α-M18 goat polyclonal (Santa Cruz Biotechnologies, Santa Cruz, Calif.; 1:1000). APP-, Tau-2-, GFAP-, and OX-6-stained sections were incubated with 3 mL of horse biotinylated anti-mouse secondary antibody and horse serum. NFκB(p65), IL-1β, and TNF-α-stained sections were incubated with 3 mL of biotinylated rabbit anti-goat secondary antibody and rabbit serum. Sections were then incubated in 3 mL of avidin-biotin complex followed by 0.05% diaminobenzidine. Sections were washed, air-dried, cleared in xylene, and cover-slipped. Brains to be compared were processed at the same time using the same solutions to reduce variability in immunostaining caused by separate processing.
(§6) Digital photographs were taken using a light microscope (Leitz Diaplan). An investigator was blinded to the identification of the rat sections while analysis was being performed. All immunohistochemical data that were compared was processed at the same time to reduce any variation caused by differences of intensity. A grading scale was based on both observable size and intensity of staining (n=5 for each group). Also, relative optical density measurements and numbers of stained cells or accumulations were measured in entire brain areas for quantitative analysis and statistically analyzed with ANOVA and Tukey post hoc test with a significance level of P<0.05.

Male Wistar rats [4] = assay: Quantitative immunohistochemistry: relative optical density and numbers of stained cells or accumulations; type: in vivo, rat; settings: for APP Accumulation / GFAP Intensity / OX6 Intensity: vehicle (not in brackets), mean ± SEM, n = 4
Method: as §3, §4, §5, §6

CC[C@H](C)[C@H](NC(=O)[C@H](CC(=O)O)NC(=O)[C@H](CC(C)C)NC(=O)[C@H](Cc1c[nH]cn1)NC(=O)[C@@H]1CSSC[C@H](N)C(=O)N[C@@H](CO)C(=O)N[C@H]2CSSC[C@H](NC(=O)[C@H](CCC(=O)O)NC(=O)[C@H](CCCCN)NC(=O)[C@H](CC(=O)O)NC(=O)[C@H](CCSC)NC(=O)[C@H](CC(C)C)NC(=O)[C@H](CO)NC(=O)[C@H](CO)NC2=O)C(=O)N[C@@H](C(C)C)C(=O)N[C@@H](Cc2ccc(O)cc2)C(=O)N[C@@H](Cc2ccccc2)C(=O)N1)C(=O)N[C@H](C(=O)N[C@@H](Cc1c[nH]c2ccccc12)C(=O)O)[C@@H](C)CC [Endothelin] was tested, and the “Staircase test performance, contralateral paw” value (Male Wistar rats [1]; day 8 (first day of re-testing)) was 66±15 % of pretreatment, the “Staircase test performance, ipsilateral paw” value (Male Wistar rats [1]; during the post-treatment phase) was 143±18 % of pretreatment and the “Congo Red staining” value (Male Wistar rats [2]) was “stained positively for Congo Red”. The APP immunostaining signal (Male Wistar rats [3]; Corpus Callosum) was “n.s”, the COX-2 immunostaining signal (Male Wistar rats [3]; Corpus Callosum) was “n.s” and the GFAP immunostaining signal (Male Wistar rats [3]; Corpus Callosum) was “+”. For the same compound, the “NKκB(p65) immunostaining signal” value (Male Wistar rats [3]; Corpus Callosum) was “n.s”, the OX-6 immunostaining signal (Male Wistar rats [3]; Corpus Callosum) was “n.s” and the TNFα immunostaining signal (Male Wistar rats [3]; Corpus Callosum) was “n.s”. The Tau-2 immunostaining signal (Male Wistar rats [3]; Corpus Callosum) was “n.s”, the APP immunostaining signal (Male Wistar rats [3]; Cortex) was “n.s” and the COX-2 immunostaining signal (Male Wistar rats [3]; Cortex) was “n.s”. For the same compound, the GFAP immunostaining signal (Male Wistar rats [3]; Cortex) was “+”, the “NKκB(p65) immunostaining signal” value (Male Wistar rats [3]; Cortex) was “n.s” and the OX-6 immunostaining signal (Male Wistar rats [3]; Cortex) was “n.s”. For the same compound, the TNFα immunostaining signal (Male Wistar rats [3]; Cortex) was “n.s”, the Tau-2 immunostaining signal (Male Wistar rats [3]; Cortex) was “n.s” and the APP immunostaining signal (Male Wistar rats [3]; Hippocampus) was “n.s”. For the same compound, the COX-2 immunostaining signal (Male Wistar rats [3]; Hippocampus) was “n.s”, the GFAP immunostaining signal (Male Wistar rats [3]; Hippocampus) was “+” and the “NKκB(p65) immunostaining signal” value (Male Wistar rats [3]; Hippocampus) was “n.s”. For the same compound, the OX-6 immunostaining signal (Male Wistar rats [3]; Hippocampus) was “n.s”, the Tau-2 immunostaining signal (Male Wistar rats [3]; Hippocampus) was “n.s” and the APP immunostaining signal (Male Wistar rats [3]; Hypothalamus) was “n.s”. For the same compound, the “NKκB(p65) immunostaining signal” value (Male Wistar rats [3]; Hypothalamus) was “n.s”, the TNFα immunostaining signal (Male Wistar rats [3]; Hypothalamus) was “n.s” and the APP immunostaining signal (Male Wistar rats [3]; Striatum (right)) was “+”. For the same compound, the COX-2 immunostaining signal (Male Wistar rats [3]; Striatum (right)) was “+”, the Cas-3 immunostaining signal (Male Wistar rats [3]; Striatum (right)) was “+” and the GFAP immunostaining signal (Male Wistar rats [3]; Striatum (right)) was “++”. For the same compound, the “NKκB(p65) immunostaining signal” value (Male Wistar rats [3]; Striatum (right)) was “+”, the OX-6 immunostaining signal (Male Wistar rats [3]; Striatum (right)) was “++” and the TNFα immunostaining signal (Male Wistar rats [3]; Striatum (right)) was “+”. The OX-6 immunostaining signal (Male Wistar rats [3]; Thalamus (right)) was “+”, the TNFα immunostaining signal (Male Wistar rats [3]; Thalamus (right)) was “+” and the Tau-2 immunostaining (Male Wistar rats [3]; region of ischemic damage (right striatum)) was “Increases”. For the same compound, the IL-1β immunostaining (Male Wistar rats [3]; region of the infarct, punctate appearance) was “Increases”, the “average numbers of OX-6-stained microglia” value (Male Wistar rats [4]; CA1 of the hippocampus) was 4.8±0.9 and the “Average intensity measurements for GFAP” value (Male Wistar rats [4]; Hippocampus) was 152.9±11.0. The “APP Accumulation” value (Male Wistar rats [4]; Left Cortex) was 7.4 ± 1.4, the “GFAP Intensity” value (Male Wistar rats [4]; Left Hippocampus) was 152.1 ± 4.1 and the “OX6 Intensity” value (Male Wistar rats [4]; Left Hippocampus) was 104.2 ± 3.5. For the same compound, the “APP Accumulation” value (Male Wistar rats [4]; Right Cortex) was 13.8 ± 1.9, the “GFAP Intensity” value (Male Wistar rats [4]; Right Hippocampus) was 166.0 ± 3.8 and the “OX6 Intensity” value (Male Wistar rats [4]; Right Hippocampus) was 116.2 ± 2.9.

From US20060282906A1, “Non-transgenic rodent model of Alzheimer's disease” (priority 2005, published 2006)
